Laboratory results published in paper PMC9516332 (Frontiers in Oncology, 2022).
Where two headings read alike, the source gives them in different places.

Test system: 134 cancer cell lines
Assay: Cell viability assay (ATPlite, 72 hours), IC50 on cancer cell line panel

Question: What does the source list for `CCCS(=O)(=O)Nc1ccc(F)c(C(=O)c2c[nH]c3ncc(-c4ccc(Cl)cc4)cc23)c1F` [vemurafenib]?
Answer: IC50 (Homo sapiens, MOLM-13, read-out: IC50 in cell proliferation assay, MOLM-13 cell line (FLT3 ITD)): 8.9 µM; IC50 (Homo sapiens, MOLT-4, read-out: IC50 in cell proliferation assay, MOLT-4 cell line): 30.6 µM; IC50 (Homo sapiens, MV4-11, read-out: IC50 in cell proliferation assay, MV4-11 cell line (FLT3 ITD)): 31.2 µM; IC50 (Homo sapiens, MeWo, read-out: IC50 in cell proliferation assay, MeWo cell line): > 31.6 µM; IC50 (Homo sapiens, NCCIT, read-out: IC50 in cell proliferation assay, NCC-IT cell line): 25.5 µM; IC50 (Homo sapiens, NCI-H82, read-out: IC50 in cell proliferation assay, cell line NCI-H82): 22.8 µM; IC50 (Homo sapiens, NCI-H460, read-out: IC50 in cell proliferation assay, NCI-H460 cell line): 26.9 µM; IC50 (Homo sapiens, NCI-H661, read-out: IC50 in cell proliferation assay, NCI-H661 cell line): > 31.6 µM; IC50 (Homo sapiens, NCI-H716, read-out: IC50 in cell proliferation assay, cell line NCI-H716 (FGFR2-COL14A1)): > 31.6 µM; IC50 (Homo sapiens, NCI-H1650, read-out: IC50 in cell proliferation assay, NCI-H1650 cell line (EGFR exon19del)): > 31.6 µM; IC50 (Homo sapiens, NCI-H1975, read-out: IC50 in cell proliferation assay, NCI-H1975 cell line (EGFR p.L858R + p.T790M)): > 31.6 µM; IC50 (Homo sapiens, NCI-H2228, read-out: IC50 in cell proliferation assay, NCI-H2228 cell line (EML4-ALK)): > 31.6 µM; IC50 (Homo sapiens, OVCAR-3, read-out: IC50 in cell proliferation assay, cell line OVCAR-3): > 31.6 µM; IC50 (Homo sapiens, PFSK-1, read-out: IC50 in cell proliferation assay, cell line PFSK-1): > 31.6 µM; IC50 (Homo sapiens, RL95-2, read-out: IC50 in cell proliferation assay, cell line RL95-2 (EGFR p.A289V)): > 31.6 µM; IC50 (Homo sapiens, RPMI-7951, read-out: IC50 in cell proliferation assay, cell line RPMI-7951 (BRAF p.V600E)): 15.7 µM; IC50 (Homo sapiens, RS4-11, read-out: IC50 in cell proliferation assay, cell line RS4;11): > 31.6 µM; IC50 (Homo sapiens, Rec1, read-out: IC50 in cell proliferation assay, cell line REC-1): 8.15 µM; IC50 (Homo sapiens, SHP77, read-out: IC50 in cell proliferation assay, cell line SHP-77): > 31.6 µM; IC50 (Homo sapiens, SK-BR-3, read-out: IC50 in cell proliferation assay, cell line SK-BR-3 (ERBB2 amplification)): > 31.6 µM; IC50 (Homo sapiens, SK-N-AS, read-out: IC50 in cell proliferation assay, cell line SK-N-AS): > 31.6 µM; IC50 (Homo sapiens, SK-N-FI, read-out: IC50 in cell proliferation assay, cell line SK-N-FI): > 31.6 µM; IC50 (Homo sapiens, SK-N-MC, read-out: IC50 in cell proliferation assay, cell line SK-N-MC): > 31.6 µM; IC50 (Homo sapiens, SK-N-SH, read-out: IC50 in cell proliferation assay, cell line SK-N-SH (ALK p.F1174L)): > 31.6 µM; IC50 (Homo sapiens, SNU-5, read-out: IC50 in cell proliferation assay, cell line SNU-5 (MET amplification)): 31.4 µM; IC50 (Homo sapiens, SNU-16, read-out: IC50 in cell proliferation assay, cell line SNU-16 (FGFR2 amplification)): > 31.6 µM; IC50 (Homo sapiens, SNU-C2B, read-out: IC50 in cell proliferation assay, cell line SNU-C2B (EGFR p.R165Q)): > 31.6 µM; IC50 (Homo sapiens, SU-DHL-1, read-out: IC50 in cell proliferation assay, cell line SU-DHL-1 (NPM1-ALK)): 23.5 µM; IC50 (Homo sapiens, SU-DHL-6, read-out: IC50 in cell proliferation assay, cell line SU-DHL-6): > 31.6 µM; IC50 (Homo sapiens, SUP-T1, read-out: IC50 in cell proliferation assay, cell line SUP-T1): > 31.6 µM; IC50 (Homo sapiens, SW48, read-out: IC50 in cell proliferation assay, cell line SW48 (EGFR p.G719S)): > 31.6 µM; IC50 (Homo sapiens, SW480, read-out: IC50 in cell proliferation assay, cell line SW480): > 31.6 µM; IC50 (Homo sapiens, SW626, read-out: IC50 in cell proliferation assay, cell line SW626): > 31.6 µM; IC50 (Homo sapiens, SW780, read-out: IC50 in cell proliferation assay, cell line SW780 (FGFR3-BAIAP2L1)): > 31.6 µM; IC50 (Homo sapiens, SW837, read-out: IC50 in cell proliferation assay, cell line SW837): > 31.6 µM; IC50 (Homo sapiens, SW872, read-out: IC50 in cell proliferation assay, cell line SW872 (BRAF p.V600E)): 1.15 µM; IC50 (Homo sapiens, SW900, read-out: IC50 in cell proliferation assay, cell line SW900): 26.7 µM; IC50 (Homo sapiens, SW948, read-out: IC50 in cell proliferation assay, cell line SW948): > 31.6 µM; IC50 (Homo sapiens, SW982, read-out: IC50 in cell proliferation assay, cell line SW982 (BRAF p.V600E)): 22.3 µM; IC50 (Homo sapiens, SW-620, read-out: IC50 in cell proliferation assay, cell line SW620): > 31.6 µM; IC50 (Homo sapiens, T98G, read-out: IC50 in cell proliferation assay, cell line T98G): 19.1 µM; IC50 (Homo sapiens, TCC-SUP, read-out: IC50 in cell proliferation assay, cell line TCCSUP): > 31.6 µM; IC50 (Homo sapiens, THP-1, read-out: IC50 in cell proliferation assay, cell line THP-1): > 31.6 µM; IC50 (Homo sapiens, U2OS, read-out: IC50 in cell proliferation assay, cell line U2OS): > 31.6 µM; IC50 (Homo sapiens, U-87 MG, read-out: IC50 in cell proliferation assay, cell line U-87MG ATCC): > 31.6 µM; IC50 (Homo sapiens, U-118-MG, read-out: IC50 in cell proliferation assay, cell line U-118MG): > 31.6 µM; IC50 (Homo sapiens, UMUC3, read-out: IC50 in cell proliferation assay, cell line UM-UC-3): > 31.6 µM; IC50 (Hs766T, read-out: IC50 in cell proliferation assay, Hs 766T cell line): > 31.6 µM; IC50 (L-82, read-out: IC50 in cell proliferation assay, L-82 cell line (NPM1-ALK)): 26.8 µM; IC50 (Rh30, read-out: IC50 in cell proliferation assay, cell line Rh30): > 31.6 µM; IC50 (read-out: IC50 in cell proliferation assay, 11-18 cell line (EGFR p.L858R)): > 31.6 µM; IC50 (read-out: IC50 in cell proliferation assay, Hs 852.T cell line): > 31.6 µM; IC50 (read-out: IC50 in cell proliferation assay, JAR cell line): 14.7 µM; IC50 (read-out: IC50 in cell proliferation assay, cell line 5637): 25.1 µM; IC50 (read-out: IC50 in cell proliferation assay, cell line A-388): > 31.6 µM; IC50 (read-out: IC50 in cell proliferation assay, cell line DB): 24.5 µM; IC50 (read-out: IC50 in cell proliferation assay, cell line DEL (NPM1-ALK)): > 31.6 µM; IC50 (read-out: IC50 in cell proliferation assay, cell line ES-2 (BRAF p.V600E)): 2.33 µM; IC50 (read-out: IC50 in cell proliferation assay, cell line PA-1): 15.7 µM; IC50 (read-out: IC50 in cell proliferation assay, cell line PC-3): > 31.6 µM; IC50 (read-out: IC50 in cell proliferation assay, cell line RD): > 31.6 µM; IC50 (read-out: IC50 in cell proliferation assay, cell line RKO (BRAF p.V600E)): 3.08 µM; IC50 (read-out: IC50 in cell proliferation assay, cell line RL): 24.8 µM; IC50 (read-out: IC50 in cell proliferation assay, cell line RT-4 (FGFR3-TACC3)): > 31.6 µM; IC50 (read-out: IC50 in cell proliferation assay, cell line T24): 30.7 µM; IC50 (read-out: IC50 in cell proliferation assay, cell line TT (RET p.C634W)): > 31.6 µM; IC50 (read-out: IC50 in cell proliferation assay, cell line VA-ES-BJ): > 31.6 µM
